The values that follow come from ChEMBL document CHEMBL1154255 (2009).

The term GI50 denotes the concentration at which growth is held to half of that of the control.

Converted amounts (≈) assume the structure as drawn.

Holding throughout (assay type): functional
Assay [1] relates to SF-268. As to the kind of experiment: Growth inhibition of human SF268 cells after 48 hrs by sulforhodamine B assay. The conditions noted are these: SF-268, 48 h.
The subject of assay [2] is DU-145. As to the kind of experiment: Growth inhibition of human DU145 cells after 48 hrs by sulforhodamine B assay. The conditions noted are these: DU-145, 48 h. (Sulforhodamine B stains cellular protein and so reports cell mass.)
Assay [3] concerns KM-20L2. As to the kind of experiment: Growth inhibition of human KM20L2 cells after 48 hrs by sulforhodamine B assay. The conditions noted are these: KM-20L2, 48 h.
In assay [4] the test system is NCI-H460. Put plainly: Growth inhibition of human NCI-H460 cells after 48 hrs by sulforhodamine B assay. The conditions noted are these: NCI-H460, 48 h.
The subject of assay [5] is BXPC-3. As to the kind of experiment: Growth inhibition of human BxPC3 cells after 48 hrs by sulforhodamine B assay. The conditions noted are these: BXPC-3, 48 h.
In assay [6] the test system is MCF7. Put plainly: Growth inhibition of human MCF7 cells after 48 hrs by sulforhodamine B assay. The conditions noted are these: MCF7, 48 h.

Take `COc1cc(/C=C/c2ccc(OC)c(O)c2O)cc(OC)c1O`: the GI50 was more than 10 µg/mL in assay [1]; more than 10 µg/mL in assay [2]; more than 10 µg/mL in assay [3]; more than 10 µg/mL in assay [4]; more than 10 µg/mL in assay [5]; 5.5 µg/mL (≈ 17.3 µM) in assay [6].
For `COc1cc(/C=C/c2ccc(OC)c(OP(=O)([O-])[O-])c2OP(=O)([O-])[O-])cc(OC)c1OP(=O)([O-])[O-].[Na+].[Na+].[Na+].[Na+].[Na+].[Na+]`, the GI50 in assay [1], in assay [2], in assay [3], in assay [4], in assay [5] and in assay [6] was more than 10 µg/mL in each case.
Regarding `COc1ccc(/C=C/c2cc(OC)c(O)c(OC)c2)cc1O`, the concentration for 50% growth inhibition (GI50) was determined as 6.3 µg/mL (≈ 20.8 µM) in assay [2], 4.9 µg/mL (≈ 16.2 µM) in assay [4] and 5 µg/mL (≈ 16.5 µM) in assay [5].
In the case of `COc1ccc(/C=C\c2cc(OC)cc(OC)c2)cc1` [8Z-3,4',5-TRIMETHOXYSTILBENE], the GI50 in assay [1] came to 0.0044 µg/mL (≈ 0.0163 µM); in assay [2] it was 0.0054 µg/mL (≈ 0.02 µM); in assay [4] it was 0.0028 µg/mL (≈ 0.0104 µM); in assay [5] it was 0.0034 µg/mL (≈ 0.0126 µM).
`Oc1ccc(/C=C\c2cc(O)cc(O)c2)cc1` [CIS-RESVERATROL]: the GI50 in assay [1] was found to be 5 µg/mL (≈ 21.9 µM); in assay [3], 22 µg/mL (≈ 96.4 µM).
For the molecule `COc1ccc(/C=C\c2cc(OC)c(OC)c(OC)c2)cc1O` [COMBRETASTATIN A4], the GI50 in assay [1] was more than 0.01 µg/mL; in assay [2], 0.0008 µg/mL (≈ 0.00253 µM); in assay [3], 0.34 µg/mL (≈ 1.07 µM); in assay [4] it was 0.0006 µg/mL (≈ 0.0019 µM); in assay [5] it was 0.39 µg/mL (≈ 1.23 µM).
Turning to `COc1ccc(/C=C/c2cc(OC)c(OC)c(OC)c2)cc1O` [E-COMBRETASTATIN A-4], the 50% growth inhibitory concentration (GI50) in assay [2] worked out at 0.037 µg/mL (≈ 0.117 µM); in assay [4], 0.038 µg/mL (≈ 0.12 µM); in assay [5], 3.9 µg/mL (≈ 12.3 µM).
On to `COc1ccc(/C=C/c2cc(OC)cc(OC)c2)cc1` [TRISMETHOXYRESVERATROL], for which the GI50 in assay [1] turned out to be 0.56 µg/mL (≈ 2.07 µM); in assay [2], 1.5 µg/mL (≈ 5.55 µM); in assay [4], 0.62 µg/mL (≈ 2.29 µM); in assay [5], 0.35 µg/mL (≈ 1.29 µM).
